{"source": "patent US7553823B2", "about": "“C-pyrazole A2A receptor agonists” (CV Therapeutics, Inc., priority 1999, dated 2009)", "key": {"A2A AdoR [1]": {"target": "A2A AdoR (Rattus norvegicus, UniProt P30543)", "sequence (P30543 whole entry, the tested form may be a part)": "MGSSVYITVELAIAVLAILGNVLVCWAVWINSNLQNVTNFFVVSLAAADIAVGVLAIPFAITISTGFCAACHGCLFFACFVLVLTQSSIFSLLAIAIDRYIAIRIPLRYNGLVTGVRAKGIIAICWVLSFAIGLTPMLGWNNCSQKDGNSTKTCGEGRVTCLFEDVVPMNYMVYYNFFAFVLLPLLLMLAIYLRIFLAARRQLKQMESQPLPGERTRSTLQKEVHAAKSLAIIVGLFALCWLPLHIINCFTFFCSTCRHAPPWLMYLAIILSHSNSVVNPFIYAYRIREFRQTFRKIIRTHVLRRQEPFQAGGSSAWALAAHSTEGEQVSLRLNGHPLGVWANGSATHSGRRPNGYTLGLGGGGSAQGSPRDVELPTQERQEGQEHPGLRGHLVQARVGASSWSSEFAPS", "test": "Increase of coronary conductance in rat isolated perfused hearts", "quoted_text": "(§3) Adult Sprague Dawley rats and Hartley guinea pigs of either sex weighing from 230 to 260 grams and 300 to 350 grams, respectively were used in this study. Animals were anesthetized by peritoneal injection of a cocktail containing ketamine and xylazine (ketamine 100 mg, xylazin 20 mg/ml). The chest was opened and the heart quickly removed. The heart was briefly rinse in ice-cold Krebs-Henseleit solution (see below), and the aorta cannulated. […] The heart was electrically paced at a fixed cycle length of 340 ms (250 beats/min) using a bipolar electrode place on the left atrium. The electrical stimuli were generated by a Grass stimulator (Model S48, W. Warwick, R.I.) and delivered through a Stimuli Isolation Unit (Model SIU5, Astro-Med, Inc., NY) as square-wave pulses of 3-msec in duration and amplitude of at least twice the threshold intensity.\nCoronary perfusion pressure (CPP) was measured using a pressure transducer, connected to the aortic cannula via a T-connector positioned approximately 3 cm above the heart. Coronary perfusion pressure was monitored throughout the experiment and recorded either on a chart recorder (Gould Recorder 2200S) or a computerized recording system (PowerLab/4S, ADinstruments Pty Ltd, Australia). Only hearts with CPP ranging from 60 to 85 mmHg (in the absence of drugs) were used in the study.\nOne concentration was made from the stock solution by dilution into saline to yield solution of either 2×10^−4 or 2×10^−5 M. These solutions were injected into the perfusion line of the apparatus as boluses of 20 μl. In some experiments the solutions were placed into a 30 ml glass syringe and the drugs were infused at rates necessary to achieve the desired perfusate concentrations (e.g, 10, 100 nM, etc).\nHearts were instrumented for continuous recording of coronary perfusion pressure (A2A response) and atrioventricular (A-V) conduction time or S-H interval (A1 response)."}, "A1 AdoR [2]": {"target": "T1, A1 AdoR (Rattus norvegicus, UniProt P25099)", "T1 construct": "from tissue; host or cells: Sprague Dawley rat isolated perfused heart", "T1 sequence (P25099 1-326)": "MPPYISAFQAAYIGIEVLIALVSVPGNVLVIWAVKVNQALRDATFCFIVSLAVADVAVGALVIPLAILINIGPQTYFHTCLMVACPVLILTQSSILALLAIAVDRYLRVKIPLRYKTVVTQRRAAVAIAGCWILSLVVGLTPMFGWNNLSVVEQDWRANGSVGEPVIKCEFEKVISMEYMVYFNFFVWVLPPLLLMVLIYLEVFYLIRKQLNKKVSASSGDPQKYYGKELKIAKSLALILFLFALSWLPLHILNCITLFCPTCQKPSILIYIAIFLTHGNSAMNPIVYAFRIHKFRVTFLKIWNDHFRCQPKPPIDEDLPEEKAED", "test": "A-V nodal conduction time (negative dromotropic effect) in rat isolated perfused hearts", "conditions": "Compound 18 0.1-30 μM, CVT510 100-400 nM", "method": "In experiments in which A1 adenosine receptor-mediated negative dromotropic effect was measured, atrial and ventricular surface electrograms were recorded during constant atrial pacing. The effect of various adenosine receptor agonists on atrioventricular conduction time was determined as described previously by Jenkins and Belardinelli Circ. Res. 63: 97-116 (1988).\n(§1) Rats and guinea pigs, of either sex weighing from 230 to 260 grams and 300 to 350 grams, respectively, were used in this study. Animals were anesthetized by peritoneal injection of a cocktail containing ketamine and xylazine (ketamine 100 mg, xylazine 20 mg/ml). The chest was opened and the heart quickly removed. The heart was briefly rinse in ice-cold Krebs-Henseleit solution (see below), and the aorta cannulated. […]\n(§2) A1 adenosine receptor-mediated depression of A-V nodal conduction time (negative dromotropic effect) was measured. Atrial and ventricular surface electrograms in rats and H is bundle electrogram in guinea pigs, were recorded during constant atrial pacing. The effects of Compound 18 on atrioventricular conduction time and stimulus-to-His-bundle (S-H interval) were determined as described previously by Jenkins and Belardinelli (1988).\nThe effects of Compound 18 on coronary conductance (A2A effect) and atrioventricular conduction time or stimulus-to-His-bundle (S-H) interval (A1 effect) was then determined. […]"}, "A2A receptor": {"target": "A2A receptor (Sus scrofa, UniProt K9IW67)", "sequence (K9IW67 1-409)": "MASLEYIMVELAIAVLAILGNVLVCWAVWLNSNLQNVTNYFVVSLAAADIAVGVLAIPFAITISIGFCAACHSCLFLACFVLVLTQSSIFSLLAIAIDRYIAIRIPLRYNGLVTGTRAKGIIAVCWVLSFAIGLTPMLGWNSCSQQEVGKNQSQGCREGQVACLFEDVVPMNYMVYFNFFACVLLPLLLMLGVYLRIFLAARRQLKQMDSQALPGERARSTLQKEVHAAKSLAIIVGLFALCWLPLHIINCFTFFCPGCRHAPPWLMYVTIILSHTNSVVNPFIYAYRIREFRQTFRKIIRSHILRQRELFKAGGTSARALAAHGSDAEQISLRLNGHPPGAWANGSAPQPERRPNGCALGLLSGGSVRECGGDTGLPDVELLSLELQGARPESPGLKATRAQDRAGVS", "test": "Affinity for the A2A receptor in a pig striatum membrane prep (displacement of tritiated ZM 241385)", "assay_type": "binding", "conditions": "pig striatal membranes, tritiated ZM 241385 2 nM, 23 C 2 h; read-out: A2a Ki", "method": "Compounds of this invention were assayed to determine their affinity for the A2A receptor in a pig striatum membrane prep. Briefly, 0.2 mg of pig striatal membranes were treated with adenosine deaminase and 50 mM Tris buffer (pH=7.4) followed by mixing. […] After incubation at 23 C for 2 h, then the solutions were filtered using a membrane harvester using multiple washing of the membranes (3×). The filter disks were counted in scintillation cocktail affording the amount of displacement of tritiated ZM by the competitive binding compounds of this invention. Greater than a 5 point curve was used to generate IC50's and the number of experiments is indicated in the column marked in Table 1 below."}, "A2A AdoR [3]": {"system": "A2A AdoR", "test": "Closing statement of Example 8 on potency and efficacy as A2A AdoR agonist coronary vasodilator (test not specified)"}, "human A1 AdoR": {"target": "T2, human A1 AdoR (Homo sapiens, UniProt P30542)", "T2 construct": "expressed in transfected cells", "T2 sequence (P30542 1-326)": "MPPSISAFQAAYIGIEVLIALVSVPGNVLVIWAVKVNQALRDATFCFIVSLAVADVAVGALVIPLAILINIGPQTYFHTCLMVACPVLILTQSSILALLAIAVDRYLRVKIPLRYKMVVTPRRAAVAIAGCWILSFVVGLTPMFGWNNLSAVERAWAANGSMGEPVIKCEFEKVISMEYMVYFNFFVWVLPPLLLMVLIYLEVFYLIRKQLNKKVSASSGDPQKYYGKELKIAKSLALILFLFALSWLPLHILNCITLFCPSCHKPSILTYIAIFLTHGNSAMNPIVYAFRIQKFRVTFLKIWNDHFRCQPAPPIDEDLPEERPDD", "test": "Competition binding, [3H]DPCPX binding sites on CHO-hA1AdoR cell membranes", "conditions": "Gpp(NH)p 100 μM"}, "A1 AdoR [4]": {"target": "T3, A1 AdoR (Cavia porcellus, UniProt P47745)", "T3 construct": "from tissue; host or cells: Hartley guinea pig isolated perfused heart", "T3 sequence (P47745 1-326)": "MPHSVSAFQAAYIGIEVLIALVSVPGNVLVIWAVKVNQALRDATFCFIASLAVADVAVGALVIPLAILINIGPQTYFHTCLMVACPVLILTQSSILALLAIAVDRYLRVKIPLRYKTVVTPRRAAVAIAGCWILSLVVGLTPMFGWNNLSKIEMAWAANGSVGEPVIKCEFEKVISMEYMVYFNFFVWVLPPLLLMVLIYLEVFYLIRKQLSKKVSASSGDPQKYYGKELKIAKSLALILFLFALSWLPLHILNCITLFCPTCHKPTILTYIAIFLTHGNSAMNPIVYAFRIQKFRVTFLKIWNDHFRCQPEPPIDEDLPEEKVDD", "test": "Stimulus-to-His-bundle (S-H) interval in guinea pig isolated perfused hearts", "conditions": "concentrations as high as 50 μM", "method": "as §1, §2\nThe effects of Compound 18 on coronary conductance (A2A effect) and atrioventricular conduction time or stimulus-to-His-bundle (S-H) interval (A1 effect) was then determined. […] In each experiment, concentration-response relationship of Compound 18 (n=5 rats, 5 guinea pigs) to increase coronary conductance and to prolong A-V conduction time or S-H interval was determined. […]"}, "human A2A AdoR": {"target": "human A2A AdoR (Homo sapiens, UniProt P29274)", "sequence (P29274 whole entry)": "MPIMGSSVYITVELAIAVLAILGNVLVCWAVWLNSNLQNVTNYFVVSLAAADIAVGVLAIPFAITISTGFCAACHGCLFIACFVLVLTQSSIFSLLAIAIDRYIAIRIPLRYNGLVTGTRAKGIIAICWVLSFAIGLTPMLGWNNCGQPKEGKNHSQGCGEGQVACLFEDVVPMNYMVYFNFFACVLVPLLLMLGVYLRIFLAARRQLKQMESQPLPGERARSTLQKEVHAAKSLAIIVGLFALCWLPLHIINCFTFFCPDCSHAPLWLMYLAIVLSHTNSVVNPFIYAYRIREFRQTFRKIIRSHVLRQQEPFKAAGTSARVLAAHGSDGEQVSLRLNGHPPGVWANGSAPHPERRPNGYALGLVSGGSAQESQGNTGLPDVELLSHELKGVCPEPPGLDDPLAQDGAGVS", "test": "Competition binding, [3H]ZM241385 binding sites on HEK-hA2AAR cell membranes", "conditions": "for Ki: HEK-hA2AAR Cells, [3H]ZM241385, Gpp(NH)p 100 μM", "quoted_text": "To make membranes, cells were detached from the culture plates into ice-cold 50 mmol/L Tris-HCI buffer (pH7.4). The cell suspensions were homogenized with Polytron at setting 4 for 30 seconds, and spun at 48,000 g for 15 minutes. The pellets were washed three times by re-suspension in ice-cold Tris-HCI buffer and centrifugation. The final pellet was re-suspended in a small volume of Tris-HCI, aliquoted and frozen at −80° C. until used for receptor binding assays. The protein concentration of membrane suspensions was determined using the Bradford method (Bio-Rad) with bovine serum as standards.\nAt the end of incubation, bound and free radioligands were separated by filtration through Whatman GF/C glass fiber filters using a Brandel tissue harvester (Gaithersburg, Md.). Triplicate determinations were performed for each concentration of the competing agent.\nThe affinity (Ki) of various CVT compounds for the A1 and A2A adenosine receptor were determined by their potency to compete for [^3H]CPX (A1) or [^3H]ZM241385 (A2A) binding sites on membranes derived from CHO-hA1AdoR, PC12 or HEK-HA2AAdoR cells."}, "A2A AdoR [5]": {"system": "A2A AdoR", "test": "Coronary blood flow and reversal time of coronary vasodilation in open-chest anesthetized pigs", "conditions": "pig, intracoronary infusion 50 μg/kg/min", "quoted_text": "Farm pigs weighing 22-27 kg were used in this study. […] In addition, animals were used in accordance with the guidelines of the University of Kentucky Institutional Animal Care and Use Protocol.\nAnesthesia was anesthetized with ketamine (20 mg/kg, i.m.) and sodium pentobarbital (15-18 mg/kg i.v.). Anesthesia was maintained with additional sodium pentobarbital (1.5-2 mg/kg, i.v.) every 15-20 minutes. Ventilation was maintained via a tracheotomy using a mixture of room air and 100% O2. Tidal volume, respiratory rate and fraction of O2 in inspired air were adjusted to maintain normal arterial blood gas (ABG) and pH values. […] Lactate Ringers solution was administered via an ear or femoral vein, at 5-7 ml/kg/min after a initial bolus of 300-400 ml. A catheter was inserted into the femoral artery to monitor arterial blood pressure and to obtain ABG samples.\nThe heart was exposed through a median sternotomy, and suspended in a pericardial cradle. Left ventricular pressure (LVP) was measured with a 5F high fidelity pressure sensitive tip transducer (Millar Instruments, Houston, Tex.) placed in the left ventricular cavity via the apex and secured with a purse string suture. A segment of the left anterior descending coronary artery (LAD), proximal to the origin of the first diagonal branch, was dissected free of, surrounding tissue. A transmit time perivascular flow probe (Transonic Systems Inc., Ithaca, N.Y.) was placed around this segment to measure coronary blood flow (CBF). Proximal to the flow probe a 24 g modified angiocatheter was inserted for intracoronary infusions. […] A2A AdoR agonists were dissolved in DMSO to produce stock concentrations of 1-5 mM, which were diluted in 0.9% saline and infused at rates of 1-1.5 ml/min. The A2A AdoR agonists were administered intracoronary. To maintain blood pressure constant, phenylephrine was administered intravenously. The phenylephrine stock solution (30 mM) was prepared in distilled water.\nPrior to initiating the experiment, a 30-minute stabilization period followed the completion of all instrumentation. After obtaining the baseline hemodynamic data the first intracoronary infusion of an A2A ADOR agonist was initiated. Infusions were maintained for 4-5 minutes to allow LAD CBF to reach a steadystate, after which the infusion was terminated. The time to recovery of 50% (t 0.5) and 90% (t 0.9) of baseline CBF were recorded. Ten to 15 minutes after CBF returned to pre-drug values a second infusion with a different agonist was started. […] The effect of a maximum of three different agonists was determined in each experiment."}, "A2A adenosine receptor": {"target": "A2A adenosine receptor (Rattus norvegicus, UniProt P30543)", "sequence (P30543 whole entry, the tested form may be a part)": "as the sequence (P30543 whole entry, the tested form may be a part) above", "test": "Reversal time of coronary vasodilation after bolus injection in rat isolated perfused hearts", "conditions": "rat isolated perfused hearts, bolus into perfusion line", "quoted_text": "Animals were anesthetized by peritoneal injection of a cocktail containing ketamine and xylazine (ketamine 100 mg, xylazine 20 mg/ml). The chest was opened and the heart quickly removed. The heart was briefly rinse in ice-cold Krebs-Henseleit solution (see below), and the aorta cannulated. […] The heart was electrically paced at a fixed cycle length of 340 ms (250 beats/min) using a bipolar electrode place on the left atrium. The electrical stimuli were generated by a Grass stimulator (Model S48, W. Warwick, R.I) and delivered through a Stimuli Isolation Unit (Model SIU5, Astro-Med, Inc., NY) as square-wave pulses of 3 msec in duration and amplitude of at least twice the threshold intensity.\nCoronary perfusion pressure (CPP) was measured using a pressure transducer, connected to the aortic cannula via a T-connector positioned approximately 3 cm above the heart. Coronary perfusion pressure was monitored throughout the experiment and recorded either on a chart recorder (Gould Recorder 2200S) or a computerized recording system (PowerLab/4S, ADInstruments Pty Ltd, Australia). Only hearts with CPP ranging from 60 to 85 mmHg (in the absence of drugs) were used in the study.\nProtocol: Bolus injections. […] The times to 50% (t 0.5) and 90% (t 0.9) reversal of the decrease in CPP were measured. Each heart was exposed to a maximum of three vasodilators."}, "A2A AdoR [6]": {"target": "A2A AdoR (Cavia porcellus, UniProt P46616)", "sequence (P46616 whole entry, the tested form may be a part)": "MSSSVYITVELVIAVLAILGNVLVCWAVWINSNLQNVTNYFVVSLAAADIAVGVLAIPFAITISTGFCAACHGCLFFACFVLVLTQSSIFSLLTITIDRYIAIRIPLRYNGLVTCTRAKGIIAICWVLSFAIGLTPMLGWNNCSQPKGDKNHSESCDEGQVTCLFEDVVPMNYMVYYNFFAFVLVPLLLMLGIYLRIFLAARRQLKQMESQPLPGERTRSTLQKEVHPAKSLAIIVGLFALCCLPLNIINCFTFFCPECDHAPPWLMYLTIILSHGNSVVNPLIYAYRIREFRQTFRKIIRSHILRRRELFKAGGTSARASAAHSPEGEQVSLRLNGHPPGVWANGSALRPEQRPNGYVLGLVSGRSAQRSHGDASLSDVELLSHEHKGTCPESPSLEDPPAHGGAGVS", "test": "Increase of coronary conductance in guinea pig isolated perfused hearts", "quoted_text": "as §3\nCoronary perfusion pressure (CPP) was measured using a pressure transducer, connected to the aortic cannula via a T-connector positioned approximately 3 cm above the heart. Coronary perfusion pressure was monitored throughout the experiment and recorded either on a chart recorder (Gould Recorder 2200S) or a computerized recording system (PowerLab/4S, ADinstruments Pty Ltd, Australia). Only hearts with CPP ranging from 60 to 85 mmHg (in the absence of drugs) were used in the study. […]"}}, "note": "Like-named read-outs stand apart in the source and are kept apart here."}
{"smiles": "CCCCCn1cc(-c2nc(N)c3ncn([C@@H]4O[C@H](CO)[C@@H](O)[C@H]4O)c3n2)cn1", "note": "[Compound 18, (4S,2R,3R,5R)-2-[6-amino-2-(1-pentylpyrazol-4-yl)purin-9 yl]-5-(hydroxymethyl)oxolane-3,4-diol]", "values": [{"measurement": "EC50", "setting": "A2A AdoR [1]; EC50 to increase coronary conductance in rat hearts, Example 7, n=5 rats", "value": "68.9 ± 9.6", "unit": "nM"}, {"measurement": "EC50", "setting": "A2A AdoR [1]; Potency (EC50) to increase coronary conductance, Rat, rat isolated perfused hearts, Table 3", "value": "67.9 ± 16.7", "unit": "nM"}, {"measurement": "effect on coronary conductance", "setting": "A2A AdoR [1]; isolated perfused hearts (36 rats and 18 guinea pigs), atrial cycle length 340 msec", "value": "concentration-dependent increase"}, {"measurement": "relative potency in increasing coronary conductance", "setting": "A2A AdoR [1]; isolated perfused hearts, rat and guinea pig", "value": "about as potent as adenosine"}, {"measurement": "effect on A-V nodal conduction time", "setting": "A1 AdoR [2]", "value": "did not prolong"}, {"measurement": "Ki", "setting": "A2A receptor", "value": "7090 ± 780", "unit": "nM"}, {"measurement": "agonist efficacy to cause coronary vasodilation", "setting": "A2A AdoR [3]", "value": "full agonists"}, {"measurement": "less potent than the prototypical agonist CGS21680", "setting": "A2A AdoR [3]; relative to CGS21680", "value": 10, "unit": "fold"}, {"measurement": "Ki", "setting": "human A1 AdoR; read-out: Binding Affinity Ki, CHO-hA1AR", "value": 5840, "unit": "nM"}, {"measurement": "Ki", "setting": "human A1 AdoR; read-out: Binding Affinity pKi ± SEM, CHO-hA1AR (converted)", "value": 5750, "unit": "nM"}, {"measurement": "effect on S-H interval", "setting": "A1 AdoR [4]", "value": "no prolongation"}, {"measurement": "greater affinity for A2A than A1 AdoR", "setting": "human A2A AdoR; A2A vs A1 AdoR", "value": "> 2", "unit": "fold"}, {"measurement": "Ki", "setting": "human A2A AdoR; Binding Affinity Ki", "value": 2900, "unit": "nM"}, {"measurement": "Ki", "setting": "human A2A AdoR; Binding Affinity pKi ± SEM", "value": 2880, "unit": "nM"}, {"measurement": "CBF (\"Fold Increase\") above baseline, maximal", "setting": "A2A AdoR [5]", "value": "3.33 ± 0.58", "unit": "fold"}, {"measurement": "t0.5, time to 50% reversal of the increase in coronary blood flow", "setting": "A2A AdoR [5]", "value": "3.1 ± 0.9", "unit": "min"}, {"measurement": "t0.9, time to 90% reversal of the increase in coronary blood flow", "setting": "A2A AdoR [5]", "value": "12.0 ± 1.0", "unit": "min"}, {"measurement": "t 0.5, time to 50% reversal of the increase in coronary conductance", "setting": "A2A adenosine receptor", "value": "3.4 ± 0.5", "unit": "min"}, {"measurement": "t 0.9, time to 90% reversal of the increase in coronary conductance", "setting": "A2A adenosine receptor", "value": "8.4 ± 2.2", "unit": "min"}, {"measurement": "EC50", "setting": "A2A AdoR [6]", "value": "203 ± 22", "unit": "nM"}]}
